From patent US20100311678A1, “METHODS AND COMPOSITIONS FOR TREATING CANCER AND MODULATING SIGNAL TRANSDUCTION AND METABOLISM PATHWAYS” (priority 2007, published 2010)
“Also recorded” adds a separate entry of the source.

How the values were obtained:
[1] = system: adult rat dissociated dorsal root ganglion (DRG) neurons; test: Intracellular delivery of fluorescent doxorubicin into dissociated DRG neurons with the TRPM8 agonist menthol (micrographs); assay type: cell-based; settings: 2 mM doxorubicin/100 mM L-menthol for 10 minutes vs 2 mM doxorubicin alone for 20 minutes; fluorescence micrographs, FIG. 1
Method: FIG. 1 is a series of micrographs showing intracellular delivery of doxorubicin a fluorescent antiproliferative agent into adult rat dissociated dorsal root ganglion (DRG) neurons. The DRG neurons were treated with vehicle control (FIG. 1A), 2 mM doxorubicin (Adriamycin®) for 20 minutes (FIG. 1B), or 2 mM doxorubicin/100 mM L-menthol for 10 minutes (FIG. 1C). […] The size and number of the fluorescently labeled neurons are similar to those of TRPM8 expressing neurons.
The selective administration of compounds or agents that are cytotoxic to cancer cells is accomplished by the co-administration of menthol, an agonist of the large-pore cation channel receptor TRPM8, along with the antiproliferative agent doxorubicin (Adriamycin®). […] Once doxorubicin is within a cell it enters the nucleus where it binds to DNA.

[2] = system: adult rat dissociated dorsal root ganglion (DRG) neurons; test: Intracellular delivery of fluorescent doxorubicin into dissociated DRG neurons with the TRPV1 agonist capsaicin (micrographs); assay type: cell-based; settings: 2 mM doxorubicin/1 mM capsaicin for 5 minutes vs 2 mM doxorubicin alone for 20 minutes; fluorescence micrographs, FIG. 2
Method: FIG. 2 is a series of micrographs showing intracellular delivery of doxorubicin into adult rat dissociated dorsal root ganglion (DRG) neurons. The DRG neurons were treated with vehicle control (FIG. 2A), 2 mM doxorubicin (Adriamycin®) for 20 minutes (FIG. 2B), or 2 mM doxorubicin (Adriamycin®)/1 mM capsaicin for 5 minutes (FIG. 2C). […] The size and number of the fluorescently labeled neurons are similar to those of TRPV1 expressing neurons.
The selective administration of compounds or agents that are cytotoxic to cancer cells is accomplished by the co-administration of capsaicin, an agonist of the large-pore cation channel receptor TRPV1, along with doxorubicin (Adriamycin®).

COc1cccc2c1C(=O)c1c(O)c3c(c(O)c1C2=O)C[C@@](O)(C(=O)CO)C[C@@H]3O[C@H]1C[C@H](N)[C@H](O)[C@H](C)O1 [doxorubicin]
intracellular delivery/accumulation of doxorubicin [1]: only entered into cells in the presence of menthol; also recorded: intracellular accumulation of the doxorubicin only into those DRG neurons that express TRPM8 | intracellular delivery/accumulation of doxorubicin [2]: only entered into cells in the presence of capsaicin; also recorded: intracellular accumulation of the doxorubicin only into those DRG neurons that express TRPV1
